Literature values in publication PMC7687107 (Chemmedchem, 2020).

Target: tRNA guanine transglycosylase (TGT) (Zymomonas mobilis, UniProt P28720)
Experiment: SPR
Assay type: binding

Sequence of tRNA guanine transglycosylase (TGT) (P28720 2-386): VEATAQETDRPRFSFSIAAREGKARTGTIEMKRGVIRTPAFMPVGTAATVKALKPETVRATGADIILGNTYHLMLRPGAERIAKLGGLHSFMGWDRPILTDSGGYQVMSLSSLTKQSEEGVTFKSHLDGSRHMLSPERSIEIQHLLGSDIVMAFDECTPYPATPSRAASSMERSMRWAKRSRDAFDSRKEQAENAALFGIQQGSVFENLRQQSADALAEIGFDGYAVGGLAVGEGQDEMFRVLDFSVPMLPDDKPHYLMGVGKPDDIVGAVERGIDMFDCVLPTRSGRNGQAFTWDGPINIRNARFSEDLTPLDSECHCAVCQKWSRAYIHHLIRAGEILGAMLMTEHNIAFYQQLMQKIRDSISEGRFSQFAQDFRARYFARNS

Kd: 0.068 ± 0.005 µM
Structure (SMILES): CNc1nc2c(CCC3OC(OC)C(O)C3O)c3[nH]c(N)nc(=O)c3cc2[nH]1 (stereo not shown) [compound 1, 6‐amino‐4‐[2‐(3,4‐dihydroxy‐5‐methoxyoxolan‐2‐yl)ethyl]‐2‐(methylamino)‐1H,5H‐imidazo[4,5‐g]quinazolin‐8‐one]
